This is an account of results in patent US20180282281A1, “IMMUNOREGULATORY AGENTS” (FLEXUS BIOSCIENCES, INC., priority 2014, published 2018).

A value given as a limit tells only on which side of the number the result lay.

T1 sequence (P14902 whole entry): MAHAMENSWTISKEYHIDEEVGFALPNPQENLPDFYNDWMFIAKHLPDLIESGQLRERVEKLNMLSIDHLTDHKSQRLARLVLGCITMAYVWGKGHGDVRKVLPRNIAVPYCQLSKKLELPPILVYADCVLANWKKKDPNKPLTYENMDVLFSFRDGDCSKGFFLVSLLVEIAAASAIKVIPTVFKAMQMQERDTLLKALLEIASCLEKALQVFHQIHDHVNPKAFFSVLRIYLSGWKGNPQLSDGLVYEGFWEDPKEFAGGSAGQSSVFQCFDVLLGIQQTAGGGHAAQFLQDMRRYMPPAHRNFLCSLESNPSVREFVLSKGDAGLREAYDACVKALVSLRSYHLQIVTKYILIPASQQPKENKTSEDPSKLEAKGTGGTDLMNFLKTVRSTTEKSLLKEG

The first assay addresses T1, human IDO1 (Homo sapiens, UniProt P14902).
T1 construct: expressed in transfected cells
Put plainly: HEK293 human IDO1 cell-based IDO inhibition assay. The settings on record: HEK293 cells stably expressing human IDO1; 20 hours incubation; absorbance at 490 nm (Ehrlich reagent); 500 nM reference standard = 100% inhibition; read-out: HEK Human IDO-1 Potency. In short, it runs like this:
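HEK293 cells stably expressing human IDO1, 10,000/well in RPMI with 10% FBS, treated with compound 20 h at 37 °C. Stopped with 0.2% final TCA, 50 °C for 30 min; supernatant mixed with 0.2% Ehrlich reagent in acetic acid, 30 min RT, absorbance read at 490 nm.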
“N-(4-chlorophenyl)-2-(cis-4-(6-fluoroquinolin-4-yl)-1-hydroxycyclohexyl) propanamide [Example 231]”: the IC50 was less than 250 nM. With “N-(4-chlorophenyl)-2-(cis-4-(6-fluoroquinolin-4-yl)-1-hydroxycyclohexyl) propanamide [Example 232]”, the IC50 is less than 50 nM. Turning to “N-(4-chlorophenyl)-2-(trans-4-(6-fluoroquinolin-4-yl)-1-hydroxycyclohexyl) propanamide [Example 229]”, the IC50 is less than 50 nM.

On to “N-(4-chlorophenyl)-2-(trans-4-(6-fluoroquinolin-4-yl)-1-hydroxycyclohexyl) propanamide [Example 230]”, for which the IC50 is less than 250 nM.

Still in this assay, the particulars now being: read-out: HEK Human IDO-1 Potency.
For the compound `C[C@@H](C(=O)Nc1ccc(Cl)c(O)c1)[C@H]1CC[C@@H](c2ccnc3ccc(F)cc32)CC1` [Example 239, (R)-N-(4-chloro-3-hydroxyphenyl)-2-(cis-4-(6-fluoroquinolin-4-yl)cyclohexyl)propanamide], the IC50 is less than 50 nM. On the same count and under the same terms, the value for `C[C@@H](C(=O)NC1CC2CCC1C2)[C@H]1CC[C@@H](c2ccnc3ccc(F)cc32)CC1` (stereo partly drawn) [Example 240, (2R)-N-((2S)-bicyclo[2.2.1]heptan-2-yl)-2-(cis-4-(6-fluoroquinolin-4-yl)cyclohexyl)propanamide] was less than 250 nM; that for `C=CC[C@@H](C(=O)Nc1ccc(Cl)cc1N)[C@H]1CC[C@@H](c2ccnc3ccc(F)cc32)CC1` [Example 241, (R)-N-(2-amino-4-chlorophenyl)-2-(cis-4-(6-fluoroquinolin-4-yl)cyclohexyl)pent-4-enamide] was less than 50 nM. Still for that read-out and setting: to `CC1(CC(=O)NC2(C)CCCCC2)CCN(c2ccnc3ccc(F)cc23)CC1` [Example 242, 2-(1-(6-Fluoroquinolin-4-yl)-4-methylpiperidin-4-yl)-N-(1-methylcyclohexyl)acetamide] belongs less than 50 nM; to `CCC(C(=O)Nc1ccc(C)cc1)N1CCC(Oc2ccnc3ccc(F)cc23)CC1` (centres unmarked) [compound 97], less than 250 nM; to `CCC(C(=O)Nc1ccc(Cl)cc1)N1CCC(Oc2ccnc3ccc(F)cc23)CC1` (centres unmarked) [compound 98], less than 250 nM. For `CC(C(=O)Nc1ccc(F)cc1)N1CCC(Oc2ccnc3ccc(F)cc23)CC1` (centres unmarked) [compound 99], the IC50 is less than 50 nM. For the compound `CCOc1ccc(NC(=O)C(C)N2CCC(Oc3ccnc4ccc(F)cc34)CC2)cc1` (centres unmarked) [compound 100], the IC50 is less than 50 nM.

For the compound `Cc1ccc(NC(=O)C(C)N2CCC(Oc3ccnc4ccc(F)cc34)CC2)cc1` (centres unmarked) [compound 101], the IC50 was less than 50 nM.

In the case of `CCOc1ccc(NC(=O)C(C)N2CCC(Oc3ccnc4ccc(F)cc34)CC2)cc1` (centres unmarked) [compound 107], the IC50 was less than 50 nM.

On to `CCOc1ccc(NC(=O)C(C)N2CCC(Oc3ccnc4ccc(F)cc34)CC2)cc1` (centres unmarked) [compound 108], for which the IC50 is less than 250 nM. On the same count and under the same terms, the value for `CCC(C(=O)Nc1ccc(Cl)cc1)N1CCC(Oc2ccnc3ccc(F)cc23)CC1` (centres unmarked) [compound 111] was less than 250 nM.

On to `CCC(C(=O)Nc1ccc(Cl)cc1)N1CCC(Oc2ccnc3ccc(F)cc23)CC1` (centres unmarked) [compound 112], for which the IC50 is greater than 250 nM.
